# Test results as given in ChEMBL document CHEMBL3627620, “Design, synthesis, and biological evaluation of aminopyrazine derivatives as inhibitors of mitogen-activated protein kinase-activated protein kinase 2 (MK-2)” (Bioorg Med Chem Lett, 2015).
# What was measured:
# [1] = biological target: MAP kinase-activated protein kinase 2 (Homo sapiens) (UniProt P49137); test: Inhibition of MK2 (unknown origin) at 50 uM by scintillation proximity assay
# [2] = Antiinflammatory activity in human THP1 cells assessed as inhibition of LPS-stimulated TNFalpha production; settings: THP-1
# [3] = Antiinflammatory activity in human THP1 cells assessed as inhibition of LPS-stimulated TNFalpha production at 50 uM; type: functional; settings: THP-1
# [4] = Antiinflammatory activity in human THP1 cells assessed as inhibition of LPS-stimulated TNFalpha production at […] uM; type: functional; settings: THP-1
# [5] = Ratio of IC50 for human THP1 cells assessed as inhibition of LPS-stimulated TNFalpha production to IC50 for MK2 (unknown origin); set-up: species or system THP-1
# Chain of MAP kinase-activated protein kinase 2 (Homo sapiens) (P49137 whole entry, looked up): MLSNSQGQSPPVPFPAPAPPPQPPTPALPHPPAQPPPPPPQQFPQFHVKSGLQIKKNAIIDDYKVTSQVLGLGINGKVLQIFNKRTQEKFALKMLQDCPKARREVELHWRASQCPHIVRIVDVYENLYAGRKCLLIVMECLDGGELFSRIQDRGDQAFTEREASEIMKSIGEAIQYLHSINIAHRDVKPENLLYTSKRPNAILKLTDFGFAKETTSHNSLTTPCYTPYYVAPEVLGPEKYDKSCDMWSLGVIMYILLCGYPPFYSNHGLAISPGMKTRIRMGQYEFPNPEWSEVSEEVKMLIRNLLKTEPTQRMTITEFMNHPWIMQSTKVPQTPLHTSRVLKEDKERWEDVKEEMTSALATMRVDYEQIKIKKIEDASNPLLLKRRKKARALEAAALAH
SMILES,IC50 [2] [µM],also measured
Nc1ncc(Cl)nc1CNc1nc2ccccc2s1,,inhibition [1]: 36%
Nc1ncc(Cl)nc1-c1nc(N2CCc3ccccc32)no1,,inhibition [1]: 20%
CO/N=C(\NCc1nc(Cl)cnc1N)Nc1ccc(NC(=O)OC(C)(C)C)cc1,> 50,inhibition at 50 µM [3]: 40%
CCCc1cnc(N)c(CNC(=O)Nc2ccc3[nH]c(=O)oc3c2)n1,> 12.5,inhibition at 12.5 µM [4]: 34%
Nc1ncc(C2CC2)nc1CNC(=O)Nc1ccc2[nH]c(=O)oc2c1,> 12.5,inhibition at 12.5 µM [4]: 45%

# Further lines, with some results ahead:
IC50 [2] [µM],SMILES,also measured
3.9,Cc1ccc(C(=O)/N=C(\NCc2nc(C3CC3)cnc2N)Nc2ccc3[nH]c(=O)oc3c2)cc1,
13,CCOC(=O)/N=C(\NCc1nc(C2CC2)cnc1N)Nc1ccc2[nH]c(=O)oc2c1,
10.2,CC(C)(C)OC(=O)Nc1ccc(N/C(=N/C#N)NCc2nc(C3CC3)cnc2N)cc1,
8.8,Nc1ncc(C2CC2)nc1CN/C(=N\C(=O)c1ccc(Cl)cc1)Nc1ccc2[nH]c(=O)oc2c1,
42,CCCc1cnc(N)c(CN/C(=N\C#N)Nc2ccc3[nH]c(=O)oc3c2)n1,
7.9,Nc1ncc(Cl)nc1CNC(=S)Nc1ccccc1,Ratio IC50 [5]: 4
